The target in data set [1] is T1, human vesicular acetylcholine transporter (VAChT) (Homo sapiens, UniProt Q16572).
T1 construct: expressed in transfected cells; host or cells: PC12 A123.7 cells (crude extract / homogenized, partially clarified cells)
T1 sequence (Q16572 1-532): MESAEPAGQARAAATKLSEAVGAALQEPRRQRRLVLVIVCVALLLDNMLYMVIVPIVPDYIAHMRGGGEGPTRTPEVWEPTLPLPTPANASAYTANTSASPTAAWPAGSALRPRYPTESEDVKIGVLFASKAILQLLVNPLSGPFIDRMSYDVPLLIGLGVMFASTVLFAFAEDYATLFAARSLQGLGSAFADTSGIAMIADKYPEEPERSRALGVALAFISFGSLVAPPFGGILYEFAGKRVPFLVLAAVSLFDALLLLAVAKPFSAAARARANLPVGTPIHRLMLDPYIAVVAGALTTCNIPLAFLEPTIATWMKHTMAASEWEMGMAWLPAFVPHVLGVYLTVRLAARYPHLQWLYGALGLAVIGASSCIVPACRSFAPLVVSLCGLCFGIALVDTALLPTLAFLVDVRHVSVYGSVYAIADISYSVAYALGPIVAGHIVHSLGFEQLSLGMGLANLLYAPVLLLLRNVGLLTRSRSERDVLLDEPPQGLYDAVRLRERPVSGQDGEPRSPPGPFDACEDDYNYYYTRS
The data set can be described thus: VAChT binding assay, (−)-[3H]vesamicol, human VAChT expressed in PC12 cells.
Protocol: In vitro binding assays of these novel compounds to VAChT were conducted with human vesicular acetylcholine transporter (VAChT) permanently expressed in PC12^A123.7 cells at about 50 pmol/mg of crude extract. […] Duplicate data were averaged and fitted by regression with a rectangular hyperbola to estimate the Ki value of the novel compound. All compounds were independently assayed at least two times.

The target in data set [2] is T2, σ2 receptor (Rattus norvegicus, UniProt Q5U3Y7).
T2 sequence (Q5U3Y7 1-176): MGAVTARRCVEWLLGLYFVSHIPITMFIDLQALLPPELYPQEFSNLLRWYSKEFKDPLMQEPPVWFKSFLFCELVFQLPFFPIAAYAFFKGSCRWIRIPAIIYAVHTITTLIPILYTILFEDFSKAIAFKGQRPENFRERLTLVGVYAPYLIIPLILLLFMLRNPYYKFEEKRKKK
In words: σ2 receptor binding assay, [3H]DTG, rat liver membrane homogenates. Also noted: conducted using rat liver membrane homogenates; from tissue; host or cells: rat liver membrane homogenates.
Protocol: (§1) The compounds were dissolved in DMF, DMSO, or ethanol, and then diluted in 50 mM Tris-HCl buffer containing 150 mM NaCl and 100 mM EDTA at pH 7.4, prior to performing the σ1 and σ2 receptor binding assays.
The incubation time was 2 h at room temperature. Nonspecific binding was determined from samples that contained 10 μM of cold haloperidol. All other procedures were identical to those described for the σ1 receptor binding assay above.
(§2) Ki values were calculated using the method of Cheng and Prusoff and are presented as the mean (±1 SEM).

A further data set has as its target T3, σ1 receptor (Cavia porcellus, UniProt Q60492).
T3 construct: using guinea pig brain membrane homogenates; from tissue; host or cells: guinea pig brain membrane homogenates
In words: σ1 receptor binding assay, (+)-[3H]pentazocine, guinea pig brain membranes.

Another data set concerns the target T4, VAChT (Tetronarce californica, UniProt P81721).
T4 construct: using highly purified Torpedo synaptic vesicles; from tissue
T4 sequence (P81721 1-515): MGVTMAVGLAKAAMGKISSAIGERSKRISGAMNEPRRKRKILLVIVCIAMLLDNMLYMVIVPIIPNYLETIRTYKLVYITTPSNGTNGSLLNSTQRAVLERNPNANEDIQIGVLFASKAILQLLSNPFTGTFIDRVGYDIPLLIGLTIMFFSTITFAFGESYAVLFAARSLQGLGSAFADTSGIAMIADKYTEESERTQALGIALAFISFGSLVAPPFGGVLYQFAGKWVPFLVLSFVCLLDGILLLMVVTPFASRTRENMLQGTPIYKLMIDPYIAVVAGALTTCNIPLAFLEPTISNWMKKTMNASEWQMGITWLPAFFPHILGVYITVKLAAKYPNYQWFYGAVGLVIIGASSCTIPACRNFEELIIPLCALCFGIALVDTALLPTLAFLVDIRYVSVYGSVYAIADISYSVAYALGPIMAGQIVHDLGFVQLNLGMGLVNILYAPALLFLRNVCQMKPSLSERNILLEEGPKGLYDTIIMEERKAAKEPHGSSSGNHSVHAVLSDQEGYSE
The data set can be described thus: biochemical. The following applies: for VAChT/σ selectivity: in words; for σ1/VAChT: selectivity index Ki (σ1)/Ki (VAChT); for σ2/VAChT: selectivity index Ki (σ2)/Ki (VAChT). The class given is binding.

Data set [3] concerns the target T2, σ2 receptor. The data set can be described thus: σ2 binding of Table 5 compounds. The following applies: read-out: σ2 Ki (nM) ± SEM; Table 6. Also noted: species or system guinea pig. The protocol:
Compounds were tested for VAChT binding using highly purified Torpedo synaptic vesicles. The σ1 and σ2 binding affinities were tested in rat brain and in guinea pig membranes, respectively. Structures and Equilibrium binding constants (Ki) are reported in Table 5 and Table 6, respectively. As in previous studies, we define ligand selectivity in terms of a selectivity index which is calculated as Ki (σ1 or σ2)/Ki (VAChT).
Consequently, we also screened the target compounds for sigma binding to identify selective VAChT ligands from this new structural class of agents.

Setting [4] is: expressed human VAChT, mean ± SEM, read-out: VAChT (Ki).
The mark [5] stands for this setting: homogenates of rat liver, mean ± SEM, read-out: σ2 (Ki).
The mark [6] stands for this setting: Table 4, Ki values of VAChT specific compounds, tissue not given, read-out: Sigma-1 σ1.
Setting [7] is: Table 4, Ki values of VAChT specific compounds, source not given, read-out: VAChT.
[8] abbreviates: Table 4, Ki values of VAChT specific compounds, tissue not given, read-out: Sigma-2 σ1.
The mark [9] stands for this setting: membrane preparations of guinea pig brain, mean ± SEM, at least three experiments, read-out: σ1 (Ki).

Values joined by “and” are separate entries in the source; they are usually repeats but may differ in a detail not shown here. Identical values can stand only once. Counter-ions that a name gives are not always drawn. Like-named read-outs stand apart in the source and are kept apart here.

Broadly, the melting point is the temperature, or range, at which the solid turns liquid.

T3 sequence (Q60492 whole entry): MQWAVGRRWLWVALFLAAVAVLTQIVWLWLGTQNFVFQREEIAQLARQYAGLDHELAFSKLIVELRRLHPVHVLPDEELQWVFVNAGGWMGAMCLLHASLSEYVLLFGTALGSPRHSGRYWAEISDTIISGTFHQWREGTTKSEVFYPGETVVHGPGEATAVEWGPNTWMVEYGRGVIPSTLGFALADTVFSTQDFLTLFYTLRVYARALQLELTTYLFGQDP
Protocol for σ1 receptor: as §1
The total incubation time was 90 min at room temperature. Nonspecific binding was determined from samples that contained 10 μM of cold haloperidol. After 90 min, the reaction was quenched by adding 150 μL of ice-cold wash buffer (10 mM Tris-HCl, 150 mM NaCl, pH 7.4) using a 96 channel transfer pipet (Fisher Scientific, Pittsburgh, Pa.). The samples were harvested and filtered rapidly through a 96-well fiberglass filter plate (Millipore, Billerica, Mass.) that had been presoaked with 100 μL of 50 mM Tris-HCl buffer at pH 8.0 for 1 h.
as §2

As for `O=C(c1ccc(F)cc1)C1CCN(C2CCN(C(=O)c3ccc(F)cc3)CC2O)CC1` (stereo not drawn) [Compound 15a, (3′-Hydroxy-[1,4′-bipiperidine]-1′,4-diyl)bis(4-fluorophenyl)methanone], the Ki in data set [1] (setting [4]) worked out at 3.6 ± 0.499 µM.
As to `COc1ccc(C(=O)C2CCN(C3CN(Cc4ccccc4)CCC3O)CC2)cc1` (stereo not drawn) [Compound 16g, (1′-Benzyl-4′-hydroxy-[1,3′-bipiperidin]-4-yl)(4-methoxyphenyl)methanone], the figures for the Ki (in data set [1] (setting [4]); at σ2 receptor [2] (setting [5])) were 0.0355 ± 0.0111 µM and 8.54 ± 1.9 µM, respectively.
Consider `Nc1cccc2c1CC(N1CCC(C(=O)c3ccc(F)cc3)CC1)C(O)C2` (single isomer, unassigned) [WW-1-88-1], for which the Ki at σ1 receptor (setting [6]) turned out to be 3.69 ± 0.537 µM; in data set [1] (setting [7]), 0.366 ± 0.036 µM; at σ2 receptor [2] (setting [8]), 14.7 ± 1.94 µM.
For `COc1ccc(C(=O)C2CCN(C3CN(Cc4cccnc4)CCC3O)CC2)cc1` (stereo not drawn) [WW-III-25] the same measures were 2.23 ± 0.168 µM, 0.107 ± 0.0111 µM and 17.1 ± 3.86 µM.
`Cn1cccc1C(=O)C1CCN(C2Cc3ccccc3CC2O)CC1` (stereo not drawn) (as salt: oxalate) [OS-5-60, (1-(3-Hydroxy-1,2,3,4-tetrahydronaphthalen-2-yl)piperidin-4-yl)(1-methyl-1H-pyrrol-2-yl) methanone oxalate]: the melting point was in the range of 212 to 213 °C.
Molecule `COc1ccc(C(=O)C2CCN(C3Cc4c(N)cccc4CC3O)CC2)cn1` (stereo not drawn) (as salt: oxalate) [OS-5-82, (1-(8-Amino-3-hydroxy-1,2,3,4-tetrahydronaphthalen-2-yl)piperidin-4-yl)(6-methoxypyridin-3-yl)methanone oxalate] showed a melting point of 81.4 to 83.2 °C.
The same measure, in the same setting: the result for `O=C(c1ccc(F)cc1)C1CCN(C2CCN(C(=O)c3ccc(F)cc3)CC2O)CC1` (stereo not drawn) (as salt: oxalate) [Compound 15a, (3′-Hydroxy-[1,4′-bipiperidine]-1′,4-diyl)bis(4-fluorophenyl)methanone] reads 213 °C (dec.); that for `Cc1ccc(C(=O)C2CCN(C3Cc4c(N)cccc4CC3O)CC2)cn1` (stereo not drawn) (as salt: oxalate) [OS-5-70, (1-(8-amino-3-hydroxy-1,2,3,4-tetrahydronaphthalen-2-yl)piperidin-4-yl)(6-methylpyridin-3-yl)methanone oxalate], 98 to 103 °C.
As to `O=C(c1ccc(F)cc1)C1CCN(C2CN(C(=O)c3cccnc3)CCC2O)CC1` (stereo not drawn) [WW-III-45], the Ki in data set [1] (setting [7]) worked out at 0.807 ± 0.139 µM; at σ2 receptor [2] (setting [8]) it was 15.5 ± 2.17 µM.
For `O=C(c1ccc(F)cc1)C1CCN(C2CN(C(=O)c3ccc(F)cc3)CCC2O)CC1` (stereo not drawn) [WW-1-123] the same measures were 8.7 ± 1.62 µM and 1.38 ± 0.135 µM.
With `O=C(c1ccc(F)cc1)C1CCN(C2CN(Cc3cccnc3)CCC2O)CC1` (stereo not drawn) [WW-III-47], the values for the Ki (on σ1 receptor (setting [6]); in data set [1] (setting [7]); on σ2 receptor [2] (setting [8])) were 1.16 ± 0.128 µM, 0.237 ± 0.0414 µM and 13 ± 2.63 µM, respectively.
On to `Nc1cccc2c1CC(N1CCC(C(=O)c3ccc(F)cc3)CC1)C(O)C2` (single isomer, unassigned) [WW-1-88-2], for which the figures for the Ki (on σ1 receptor (setting [6]); in data set [1] (setting [7]); at σ2 receptor [2] (setting [8])) were 3.55 ± 0.438 µM, 0.0209 ± 0.00498 µM and 6.89 ± 0.546 µM, respectively.
For the molecule `Cc1ccc(C(=O)C2CCN(C3Cc4c(N)cccc4CC3O)CC2)cn1` (stereo not drawn) [OS-5-70, (1-(8-amino-3-hydroxy-1,2,3,4-tetrahydronaphthalen-2-yl)piperidin-4-yl)(6-methylpyridin-3-yl)methanone oxalate], the Ki came out at 0.048 ± 0.0114 µM at VAChT, 0.048 ± 0.0114 µM in data set [1] (setting [7]), 27500 ± 6940 nM at σ2 receptor [3] and 27.5 ± 6.94 µM on σ2 receptor [2] (setting [8]).
As for `COc1ccc(C(=O)C2CCN(C3CCN(Cc4ccncc4)CC3O)CC2)cc1` (racemic) (as salt: oxalate) [Compound 14h, (3′-Hydroxy-1′-(pyridin-4-ylmethyl)-[1,4′-bipiperidin]-4-yl)(4-methoxyphenyl)methanone], the melting point was 188 °C (dec.).
For the molecule `O=C(c1ccc(F)cc1)C1CCN(C2CCN(Cc3ccc(F)cc3)CC2O)CC1` (racemic) [Compound 14a, (1′-(4-Fluorobenzyl)-3′-hydroxy-[1,4′-bipiperidin]-4-yl)(4-fluorophenyl)methanone], the Ki on σ1 receptor (setting [9]) was < 0.005 µM and 0.00048 µM.
For the molecule `COc1ccc(C(=O)C2CCN(C3CCN(C(=O)c4ccncc4)CC3O)CC2)cc1` (stereo not drawn) (as salt: oxalate) [Compound 15g, (3′-Hydroxy-1′-isonicotinoyl-[1,4′-bipiperidin]-4-yl)(4-methoxyphenyl)methanone], the melting point was 220 °C (dec.).
Still for that read-out and setting: the result for `Nc1cccc2c1CC(N1CCC(C(=O)c3cccnc3)CC1)C(O)C2` (stereo not drawn) (as salt: oxalate) [OS-5-110, (1-(8-Amino-3-hydroxy-1,2,3,4-tetrahydronaphthalen-2-yl)piperidin-4-yl)(pyridin-3-yl)methanone oxalate] reads 109 to 111.2 °C; that for `COc1ccc(C(=O)C2CCN(C3CCN(Cc4ccccc4)CC3O)CC2)cc1` (racemic) (as salt: oxalate) [Compound 14g, (1′-Benzyl-3′-hydroxy-[1,4′-bipiperidin]-4-yl)(4-methoxyphenyl)methanone], 234 °C (dec.).
Turning to `COc1ccc(C(=O)C2CCN(C3CN(Cc4ccccc4)CCC3O)CC2)cc1` (stereo not drawn) [WW-1-109], the Ki amounted to 0.208 ± 0.053 µM on σ1 receptor (setting [6]), 0.0355 ± 0.0111 µM in data set [1] (setting [7]) and 8.54 ± 1.9 µM on σ2 receptor [2] (setting [8]).
`O=C(c1ccc(F)cc1)C1CCN(C2CCN(C(=O)c3ccccc3)CC2O)CC1` (stereo not drawn) (as salt: oxalate) [Compound 15c, (1′-Benzoyl-3′-hydroxy-[1,4′-bipiperidin]-4-yl)(4-fluorophenyl)methanone]: the melting point was 152 °C (dec.).
With “(4-Fluorophenyl)(4′-hydroxy-1′-(pyridin-4-ylmethyl)-[1,3′-bipiperidin]-4-yl)methanone [Compound 16d]”, the figures for the Ki (at σ1 receptor (setting [9]); in data set [1] (setting [4]); at σ2 receptor [2] (setting [5])) were 1.16 ± 0.128 µM, 0.237 µM and 13 ± 2.63 µM, respectively. In addition, the σ1/VAChT selectivity on σ1 receptor (ratio of Ki values, Table 1) turned out to be 0.20. The σ1/σ2 selectivity on σ1 receptor (ratio of Ki values, Table 1) stood at 11.
With `O=C(c1ncccc1OCCF)C1CCN(C2Cc3ccccc3CC2O)CC1` (stereo not drawn) [TZ-4-2-12, (3-(2-fluoroethoxy)pyridin-2-yl)(1-(3-hydroxy-1,2,3,4-tetrahydronaphthalen-2-yl)piperidin-4-yl)methanone oxalate], on VAChT, the Ki was found to be 0.0764 ± 0.00833 µM, the VAChT/σ selectivity entry is recorded as “poor selectivity”, the σ1/VAChT amounted to 262.0 and the σ2/VAChT was 4.0. Also, on σ2 receptor [3], the Ki worked out at 303 ± 130 nM.
For `COc1ccc(C(=O)C2CCN(C3Cc4ccccc4CC3O)CC2)cc1` (stereo not drawn) [DZT-I-107], the Ki worked out at 0.132 ± 0.0101 µM at σ1 receptor (setting [6]), 0.00464 ± 0.00047 µM in data set [1] (setting [7]) and 1.953 ± 0.0131 µM on σ2 receptor [2] (setting [8]).
With `Cn1ccc(C(=O)C2CCN(C3Cc4ccccc4CC3O)CC2)cc1=O` (stereo not drawn) [TZ-4-1-150, 4-(1-(3-Hydroxy-1,2,3,4-tetrahydronaphthalen-2-yl)piperidine-4-carbonyl)-1-methylpyridin-2(1H)-one oxalate], on VAChT, the Ki was found to be 0.0662 ± 0.0102 µM, the VAChT/σ selectivity entry is reported as “moderate or high”, the σ1/VAChT was 50.5 and the σ2/VAChT amounted to 32.1. Besides, at σ2 receptor [3], the Ki came out at 2120 ± 251 nM.
